Measured values as given in patent publication US12364672B2, “Esketamine for use in treating major depressive disorder” (priority 2018, dated 2025).

Columns and labels:
[1] = system: C57Bl/6 strain mice; test: Tail suspension test, single dose; format: in vivo, mouse; settings: TST after 30 minutes
Method: Ketamine and esketamine HCl solutions at dose levels of 7.5, 15 and 30 mg/kg were administered intraperitoneally (ip) to groups of 10 inbred C57Bl/6 strain mice. After 30 minutes animals were exposed to the tail suspension test (TST).

[2] = system: human peripheral blood lymphocytes (HPBL)
[3] = system: C57Bl/6 strain mice; test: Tail suspension test, 7-day administration; format: in vivo, mouse
Method: Esketamine HCl solutions were administered intraperitoneally (ip) to 8 groups of 10 inbred C57Bl/6 strain mice divided to receive one of the following dose levels for 7 days:
1. saline 10 ml/kg ip once prior to TST
2. esketamine 15 mg/kg ip once on day 7 prior to TST
3. esketamine 30 mg/kg ip once on day 7 prior to TST
4. saline 10 ml/kg ip daily for 7-days
5. esketamine 7.5 mg/kg ip daily for 7-days
6. esketamine 15 mg/kg ip daily for 7-days
7. esketamine 30 mg/kg ip once on day 1+saline daily for 6 more days
8. esketamine 30 mg/kg ip once on day 1+esketamine 7.5 mg/kg for 6 more days.
30 minutes after the last treatment, the animals were exposed to the tail suspension test (TST).

[4] = system: liver of Crl:CD(SD) rats; test: In vivo single cell gel electrophoresis (comet) assay, liver; settings: some male animals given 75 mg/kg/day
[5] = system: human peripheral blood lymphocytes (HPBL); remark: listed apart in the source
Method: Toxicity (defined as ≥45% reduction in MI relative to the vehicle control) was evaluated at 9 concentrations, ranging from 0.0238 to 238 μg/ml, after exposure of HPBL to esketamine for 20 hours in the absence of S9 activation, or for 4 hours, either in the presence or absence of S9 activation, followed by a 16-hour recovery period.
The definitive chromosome aberration assay evaluated HPBL cells after exposure to esketamine for 20 hours in the absence of S9 activation, or for 4 hours, either in the presence of absence of S9 activation, followed by a 16-hour recovery. Positive controls for chromosomal aberrations in non-activated and S9-activated evaluations, respectively, consisted of mitomycin C (MMC, 0.6 and 0.3 μg/mL for the 4- and 20-hour exposures, respectively) and cyclophosphamide (CP, 2.5, 5, and 7.5 μg/mL). […] Initially, the doses selected for evaluation of chromosomal aberrations were 60, 120, and 238 μg/mL for the non-activated 4- and 20-hour treatment conditions; and 30, 60, and 200 μg/mL for the S9-activated 4-hour treatment condition.

[6] = system: healthy male and female subjects; test: Single dose crossover study in healthy volunteers, treatment-emergent adverse events; format: in vivo, human; settings: all treatments
From the text: A total of 128 TEAEs (treatment-emergent adverse event) were reported by 15 of 16 (94%) subjects of which 79 TEAEs reported by 14 of 16 (88%) subjects were to be related to the study drug. Overall, a total of 14 of 128 TEAEs reported by 4 (25%) subjects were of moderate severity and 114 of 128 TEAEs reported by 15 (94%) subjects were of mild severity. […] The most frequently occurring adverse events (reported more than twice) were headache, dizziness, hypokinesia, feeling abnormal, fatigue, euphoric mood inappropriate affect, nausea and hyperhidrosis. Table 4 presents the frequency of the most frequently reported related TEAEs as a percentage of the subjects that experienced an adverse effect per treatment.

| Compound | reduction of immobility time from the saline control group ([1]; 30 mg/kg ip) | Toxicity (mitotic index) [2] | efficacy in the TST vs 7-day saline control group ([3]; 7.5 mg/kg ip daily for 7 days (Group 5)) | decrease in immobility time ([3]; 15 mg/kg ip daily for 7 days (Group 6), not statistically significant) | decrease in immobility time ([3]; 15 mg/kg ip once, acute (printed Group 3), p<0.007) | effect on time spent in immobility ([3]; 30 mg/kg ip once on day 1 + 7.5 mg/kg for 6 more days (Group 8) vs Group 7, p=0.02) | immobility time 7 days after a single injection ([3]; 30 mg/kg ip once on day 1 + saline for 6 more days (Group 7)) | liver histopathology [4] | Toxicity (≥45% reduction in MI relative to the vehicle control) [5] | cytotoxicity (45% reduction in mitotic index relative to the vehicle control) ([5]; definitive assay, non-activated 4- and 20-hour treatment, any dose (30 to 238 μg/ml)) | severe TEAEs or SAEs [6] | reduction of immobility time from the saline control group ([1]; 7.5 mg/kg ip) | reduction of immobility time from the saline control group ([1]; 15 mg/kg ip) |
| --- | --- | --- | --- | --- | --- | --- | --- | --- | --- | --- | --- | --- | --- |
| CNC1(c2ccccc2Cl)CCCCC1=O (stereo not drawn) [ketamine, dl 2-(2-chlorophenyl)-2(methylamino) cyclohexanone] | 71.2% | – | – | – | – | – | – | – | – | – | – | – | – |
| N[C@]1(c2ccccc2Cl)CCCCC1=O [(S)-norketamine, (2S)-2-(2-Chlorophenyl)-2-(amino) cyclohexanone] | – | not observed | – | – | – | – | – | – | – | – | – | – | – |
| CN[C@]1(c2ccccc2Cl)CCCCC1=O [esketamine, (2S)-2-(2-Chlorophenyl)-2-(methylamino) cyclohexanone] | 58.1% | – | did not exert any efficacy | ~35% | 38.9% | 53.4% | no decline in immobility time | Increased hepatocellular mitotic figures | not observed | not observed | No severe TEAEs or SAEs | 27.0% | 43.6% |
